Laboratory results: patent US20040039014A1, “Methods and compounds for treating depression and other disorders” (NPS Pharmaceuticals, Inc., priority 1998, published 2004)
pIC50, pKi: −log10 of the molar value. Counter-ions that a name gives are not always drawn. Marks after values point to notes of the source that are not given here.

Legend:
NMDA receptor = target: T1, NMDA receptor; test: [3H]MK-801 binding assay (rat cortex synaptic plasma membranes); conditions: read-out: [3H]MK-801 data IC50, Table I
T1 construct: rat cortex membranes
Method: Synaptic plasma membranes (SPMs) from rat cortex were prepared as follows. Isolated cerebral cortices from male and female rats were purchased from Pel-Freez (Rogers, Ariz.) in bulk, and stored at −80° C. The cortices from 25 rats were thawed and pooled. […] The resulting homogenates were centrifuged for 10 min at 1,000×g in a T865 rotor, UltraPro80 Sorvall Centrifuge. The supernatant was removed and subsequently centrifuged at 30,000×g for 30 min. […] Membranes were washed by re-suspension in 500 ml of 5 mM K-EDTA (pH 7.0), incubated at 32° C. for 30 min with stirring, and centrifuged at 100,000×g for 30 min. The final pellet was resuspended in 60 ml of […] K-EDTA (pH 7.0) and stored in aliquots at −80° C. The extensive washing procedure utilized in this assay was designed to minimize the concentrations of glutamate and glycine (co-agonists at the NMDA receptor-ionophore complex) present in the membrane preparation.
On the day of assay, aliquots of SPM were thawed and resuspended in 75 vols of 5 mM K-EDTA, pH 7.0. SPM were centrifuged at 100,000×g for 30 min at 4° C.
The SPM pellet was resuspended in assay buffer (30 mM EPPS, 1 mM K-EDTA, pH 7.0) by polytron. […] Binding was started by the addition of the tissue homogenate. The assay was terminated by the addition of 4 ml ice-cold buffer, followed by filtration over glass-fiber filters (Schleicher & Schuell No. 30) on a Millipore 12-well filtration manifold. Filters were washed with another 3 ×4 ml ice-cold buffer (pH 7.0). Radioactivity on the filters was measured using Fisherbrand Scinti-Safe scintillation cocktail. Samples were shaken for 45-60 min on a shaker platform to solubilize the radioactivity. Counting for ^3H was performed in a Beckman 6000IC LS Scintillation Counter for 4 min per sample.

[1] = target: T2, dopamine transporter site (Cavia porcellus, UniProt H0WCX4); test: Dopamine reuptake inhibition assay ([3H]WIN 35428 binding, guinea pig striatal membranes); conditions: Table I; read-out: DA Uptake Ki
T2 construct: tissue NovaScreen (performed the assay); host or cells: guinea pig striatal membranes
T2 sequence (H0WCX4 1-619): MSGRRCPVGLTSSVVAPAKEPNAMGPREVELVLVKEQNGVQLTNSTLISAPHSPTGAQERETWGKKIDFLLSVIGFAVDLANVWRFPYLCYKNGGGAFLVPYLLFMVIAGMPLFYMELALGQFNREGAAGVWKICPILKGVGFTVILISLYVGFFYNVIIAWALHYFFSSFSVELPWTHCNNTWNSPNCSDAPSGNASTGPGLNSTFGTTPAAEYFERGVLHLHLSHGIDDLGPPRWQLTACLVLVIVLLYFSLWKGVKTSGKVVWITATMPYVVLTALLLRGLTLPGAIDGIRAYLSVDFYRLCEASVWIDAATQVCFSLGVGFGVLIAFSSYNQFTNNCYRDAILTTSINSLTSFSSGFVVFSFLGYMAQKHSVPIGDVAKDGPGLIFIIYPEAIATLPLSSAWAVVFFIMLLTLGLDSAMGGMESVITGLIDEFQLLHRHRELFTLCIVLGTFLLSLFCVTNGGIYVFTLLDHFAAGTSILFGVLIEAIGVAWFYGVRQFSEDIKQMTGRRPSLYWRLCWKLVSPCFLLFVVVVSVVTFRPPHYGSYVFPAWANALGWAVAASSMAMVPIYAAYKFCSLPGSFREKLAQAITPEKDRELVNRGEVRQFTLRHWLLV
Method: Monoamine Transporter Minding Assays
Monoamine transporter binding assays (reuptake inhibition assays) were performed by NovaScreen using standard radioligand binding assays. The transporter binding assays are described briefly below:
Dopamine Reuptake Inhibition Assay:
Reactions were terminated by rapid vacuum filtration onto glass fiber filters. Bound radioactivity was determined using liquid scintillation spectrometry and experimental values were compared to control values to determine binding to the dopamine transporter site based on Madras, et al., Molec.

male Sprague-Dawley rats = test: Rat forced-swim test (FST); assay type: in vivo; conditions: Table VI, 60 minutes prior to testing, saline control 47.9
Method: For the mouse and rat forced-swim tests, male pathogen-free NIH-Swiss mice (Harlan Sprague-Dawley) weighing between 22-25 g, and male pathogen-free Sprague-Dawley rats (Harlan Sprague-Dawley) weighing between 320-350 g were used. Animals were removed from the housing room to the testing area in their own cages and allowed to adapt to the new environment for at least 1 hour before testing. Mice were administered either drug (imipramine, 10 mg/kg i.p.; or Compound 60, various p.o or i.p. doses) or saline. Thirty minutes to 24 hours later, mice were placed individually in cylinders (diameter: 10 cm; height: 25 cm) filled with 6 cm of water (22-25° C.) for 6 minutes. The duration of immobility during the last 4 minutes of the 6 minute test was scored. A mouse was recorded as immobile when floating motionless or making only those movements necessary to keep its head above water. Results were expressed as the duration of immobility (seconds).
The rat forced-swim test was conducted over two days. On treatment Day 1, rats were placed individually in cylinders (diameter: 18 cm; height: 40 cm) filled with water (22-25° C.) to a depth of 15 cm for 15 minutes. The duration of immobility during the first 5 minutes was scored. After testing, the rats were dried with paper towels and placed in holding cages. Five minutes after removal from the testing cylinders, animals received either drug (imipramine, 10 mg/kg i.p.; or Compound 60, various p.o. doses) or saline (p.o.). Ten minutes later, the rats were returned to their home cages. […] The duration of immobility during the first 5 minute period was recorded. A rat was recorded as immobile when floating motionless or making only those movements necessary to keep its head above water. […]

CNCCC(c1cccc(F)c1)c1cccc(F)c1 [Compound 60, N-Methyl-3.,3-bis(3-fluorophenyl)propylamine hydrochloride]
pIC50 (NMDA receptor): 6.19
pKi [1]: 6.04
Mean Change in the Duration of Immobility (Day 2 minus Day 1) (male Sprague-Dawley rats; 1.25 mg/kg oral): 29.7 s
Mean Change in the Duration of Immobility (Day 2 minus Day 1) (male Sprague-Dawley rats; 2.5 mg/kg oral): −24.8* sec
Mean Change in the Duration of Immobility (Day 2 minus Day 1) (male Sprague-Dawley rats; 5 mg/kg oral): −28.8* sec
